US9926293B2, “Multivalent RAS binding compounds” (THE TRUSTEES OF COLUMBIA UNIVERSITY IN THE CITY OF NEW YORK, priority 2014, dated 2018)

What was measured:
KRAS^G12D I36N = target: T1, KRAS^G12D I36N (Homo sapiens, UniProt P01116, G12D/I36N); test: Microscale thermophoresis on binding-site mutant KRAS^G12D I36N; details: MST
T1 construct: His6 (N); made in house
Description: Mutagenesis of the KRAS^G12D plasmid was performed using a QuikChange XL site-directed mutagenesis kit from Agilent technologies, according to the manufacturer's protocol. Primers were designed using the Agilent QuikChange Primer Design application and purchased from Integrated DNA Technologies. KRAS^G12D D38A forward primer 5′ ATATGATCCAACAATAGAGGCTTCCTACAGGAAGCAAGTAG 3′ (SEQ ID NO: 66), KRAS^G12D D38A reverse primer 5′ CTACTTGCTTCCTGTAGGAAGCCTCTATTGTTGGATCATAT 3′ (SEQ ID NO: 67), KRAS^G12D I36N forward primer 5′ CATTTTGTGGACGAATATGATCCAACAAATGAGGATTCCTACAGG 3′ (SEQ ID NO: 68), KRAS^G12D I36N reverse primer 5′ CCTGTAGGAATCCTCATTTGTTGGATCATATTCGTCCACAAAATG 3′ (SEQ ID NO: 69). DNA sequencing was performed to confirm the correct amino acid sequence of the construct (GeneWiz, Inc.).
KRAS^G12D (250 μM) in 25 mM HEPES, 100 mM sodium chloride, 2 mM TCEP with 20 mM EDTA and 1 mM GppNHp was shaken at 220 rpm at 30° C. to remove the endogenous nucleotide, The solution was placed on ice for 2 minutes prior to the addition of 65 mM MgCl2. After an additional 10 minutes incubation on ice, 200 uL of a 10 uM solution of KRAS^G12D was combined with 200 uL of a 20 uM solution of NT-647-NHS-ester dye (from a 652.4 μM stock). The protein/dye mixture was rotated at 4° C. for 30 minutes, before being separated from the excess dye and buffer exchanged into 25 mM Tris, 100 mM sodium chloride, 2 mM TCEP, and 5 mM MgCl2 via a nap-5 column. The test compounds were arrayed across a 16-point dilution series consisting of 1.5% DMSO with 25 mM Tris, 100 mM NaCl, 2 mM TCEP, 5 mM MgCl2 and 0.05% tween-20. Thermophoretic movement of the fluorescently labeled protein with the inhibitors was performed using a Monolith NT.115 (Nanotemper Technologies). RALA and RHOA were purchased commercially from Abcam (RALA CN:ab102555, RHOA CN:ab101594). […]

[1] = tested on: active GTP-bound RALA in BJeLR cells; test: RALA activation assay using RALBP1; format: cell-based; details: 2% FBS
Description: BJeLR cells were seeded 16 hours prior to use in 2% FBS in DMEM. […] After 6 hours cells were washed twice with ice cold buffer (25 mM tris, 100 mM NaCl, 1 mM TCEP, 5 mM MgCl2, 0.1% tween-20 and 1 protease inhibitor/25 mL). Cells were scrapped, pelleted at 13,000 rpm for 10 minutes at 4° C., then passed through a 26 gauge needle several times. The solution was spun down a second time at 13,000 rpm for 15 minutes at 4° C., to remove unlysed cells and debris. RALBP1 agarose beads (EMD Millipore) were then added to the lysate and the solution was rotated at 4° C. for 2 hours. The solutions were spun down at 1500×g for 2 minutes and the supernatant was removed by syringe. The beads were washed twice by this process with buffer, then resuspended in 2.5×SDS.

H460 (KRAS^Q61H) = test: Cell viability assay (384-well, Alamar blue); format: cell-based; details: Homo sapiens, NCI-H460, Table 8, 48 hours
Description: (§1) All cell culture assays were incubated at 37° C., 5% CO2 in media containing Dulbecco's Modified Eagle Medium (DMEM) with 10% fetal bovine serum (FBS) and 1% penicillin-streptomycin (PS). 384-well format for EC50 determination: cells were trypsinized, counted, and seeded into 384-well plates at 1,000 cells/well. After 12-16 hours, compounds (as 50 mM stocks in DMSO) were arrayed in an 8- or 16-point dilution series in 384-well polypropylene plates. Compound solutions were transferred at a 1:5 dilution into the assay plates. After 48 hours, a 50% Alamar blue solution was added to a final concentration of 10% Alamar blue. After 6 hours of incubation, fluorescence intensity was determined using a Victor3 plate reader (Perkin Elmer) with a 535 nm excitation filter and a 590 nm emission filter. All compound measurements were performed in triplicate. For experiments performed in 6-well format, cells were trypsinized, counted, and seeded into 6-well plates at 200,000 cells per well 16 h prior to use. Media was then aspirated and replaced with 2 mL of media containing compounds at the indicated concentrations (from 10 mM stocks in DMSO). After 24 hours, cells were trypsinized and viability was determined using Trypan Blue exclusion assay.

H358 (KRAS^G12C) = test: Cell viability assay (384-well, Alamar blue); format: cell-based; details: Homo sapiens, NCI-H358, Table 8, 48 hours
Description: as §1

A549 (KRAS^G12S) = test: Cell viability assay (384-well, Alamar blue); format: cell-based; details: Homo sapiens, Table 8, 48 hours
Description: as §1

H23 (KRAS^G12C) = test: Cell viability assay (384-well, Alamar blue); format: cell-based; details: Table 8, 48 hours
Description: as §1

DLD1 (KRAS^Q61H) = test: Cell viability assay (384-well, Alamar blue); format: cell-based; details: Homo sapiens, DLD-1, Table 8, 48 hours
Description: as §1

H441 (KRAS^G12V) = test: Cell viability assay (384-well, Alamar blue); format: cell-based; details: Homo sapiens, NCI-H441, Table 8, 48 hours
Description: as §1

GppNHp-loaded RALA = target: T2, GppNHp-loaded RALA (Homo sapiens, UniProt P11233); test: Microscale thermophoresis on GppNHp-loaded RALA; format: binding; details: MST, up to 190 μM
T2 construct: purchased Abcam ab102555
T2 sequence (P11233 whole entry): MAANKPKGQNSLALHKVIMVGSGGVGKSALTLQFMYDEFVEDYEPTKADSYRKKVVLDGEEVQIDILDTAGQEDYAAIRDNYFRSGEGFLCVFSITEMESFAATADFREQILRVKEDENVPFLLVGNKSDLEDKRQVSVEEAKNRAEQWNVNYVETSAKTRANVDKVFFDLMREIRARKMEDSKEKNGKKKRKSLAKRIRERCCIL
Description: KRAS^G12D (250 μM) in 25 mM HEPES, 100 mM sodium chloride, 2 mM TCEP with 20 mM EDTA and 1 mM GppNHp was shaken at 220 rpm at 30° C. to remove the endogenous nucleotide, The solution was placed on ice for 2 minutes prior to the addition of 65 mM MgCl2. After an additional 10 minutes incubation on ice, 200 uL of a 10 uM solution of KRAS^G12D was combined with 200 uL of a 20 uM solution of NT-647-NHS-ester dye (from a 652.4 μM stock). The protein/dye mixture was rotated at 4° C. for 30 minutes, before being separated from the excess dye and buffer exchanged into 25 mM Tris, 100 mM sodium chloride, 2 mM TCEP, and 5 mM MgCl2 via a nap-5 column. The test compounds were arrayed across a 16-point dilution series consisting of 1.5% DMSO with 25 mM Tris, 100 mM NaCl, 2 mM TCEP, 5 mM MgCl2 and 0.05% tween-20. Thermophoretic movement of the fluorescently labeled protein with the inhibitors was performed using a Monolith NT.115 (Nanotemper Technologies). RALA and RHOA were purchased commercially from Abcam (RALA CN:ab102555, RHOA CN:ab101594).
To provide evidence that the compound indeed was selective for RAS GTPases, MST binding measurements were performed on GppNHp-loaded RHEB, RHOA and RALA (FIG. 14J).

MDA-MB-231 xenografts = test: Mouse xenograft, therapeutic study; format: in vivo, athymic nude mice
Description: Eight week old nude female mice were injected with 7 million MDA-MB-231 cells.
For the therapeutic study, athymic nude mice (eight weeks; Charles River Laboratories) were injected with 7 million MDA-MB-231 cells subcutaneously. […] Tumor size was measured by electronic caliper every 2 days and calculated using the formula: 0.523×Length×width^2.

T1 sequence (P01116 1-169 isoform P01116-2 G12D/I36N): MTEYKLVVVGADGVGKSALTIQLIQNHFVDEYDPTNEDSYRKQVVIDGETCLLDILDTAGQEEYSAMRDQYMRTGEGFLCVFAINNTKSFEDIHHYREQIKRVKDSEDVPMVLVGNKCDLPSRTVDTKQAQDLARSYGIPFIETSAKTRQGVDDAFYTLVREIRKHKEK

## NC1(C(=O)NCCCn2cc(-c3ccc(OC(F)(F)F)cc3)c3cc(CN4CCN(Cc5c(Cl)cccc5Cl)CC4)ccc32)CCNCC1 [Compound 31MEW44, 4-amino-N-(3-(5-((4-(2,6-dichlorobenzyl)piperazin-1-yl)methyl)-3-(4-(trifluoromethoxy)phenyl)-1H-indol-1-yl)propyl)piperidine-4-carboxamide]
KRAS^G12D I36N; 31MEW44, FIG. 14H
  Kd: 200 µM
KRAS^G12D I36N; 31MEW44, first experiment
  Kd: 1.1 µM
[1]
  active GTP-bound RALA: decreased levels of active GTP-bound RALA
H460 (KRAS^Q61H)
  EC50: 4.9 µM
H358 (KRAS^G12C)
  EC50: 2.8 µM
A549 (KRAS^G12S)
  EC50: 4.8 µM
H23 (KRAS^G12C)
  EC50: 2.4 µM
DLD1 (KRAS^Q61H)
  EC50: 8.8 µM
H441 (KRAS^G12V)
  EC50: 4.9 µM
GppNHp-loaded RALA
  binding: no binding was observed
MDA-MB-231 xenografts; intravenous and intraperitoneal injections 30 mg/kg, 4 IV and 6 IP doses
  tumor size: almost complete elimination of the tumor
MDA-MB-231 xenografts; orally 180 mg/kg, 10 doses over two weeks
  tumor size: almost complete elimination of the tumor
